The values that follow come from patent US20200360249A1, “AN ANTIMICROBIAL COMPOSITION” (Conopco, Inc., d/b/a UNILEVER, priority 2017, published 2020).

Common to all, as to type: cell-based
The subject of one experiment is M. furfur. In words: Antifungal activity, log reduction by plate count. The following applies: M. furfur ATCC 14521; contact time 24 hr; 10 mg sample in 1000 μL inoculum, 10^5 cells/ml; 32° C. The method, then:
The samples as given in Table-1 were subjected to their anti fungal efficacy on M. furfur as described hereinafter.
Plate was at 30° C. for 72 hrs. Approximately 72 hrs prior to testing, the plate culture was inoculated onto the surface of another sterile Modified Dixon agar plate and incubated at 30° C. for approximately 72 hrs. From second subculture, the optical density of culture is adjusted at 620 nm to give cell strength of 10^7 cfu/ml. The culture was further diluted by 100 times to achieve 10^5 cfu/ml in Pityrosporum broth.
10 mg of each sample was thoroughly mixed by vortex and weighed into a sterile 1.5 ml Eppendorf tube. 1000 μL of M. furfur inocula were added to the above tubes and a blank sterile 1.5 ml Eppendorf tube (no particles as control), respectively so that the load in each tube is 10^5 cells/ml.
All the samples were shaken at 120 RPM in a shaker incubator at 32° C. After 24 hours incubation, 10 μL of the samples were withdrawn from the respective 1.5 ml Eppendorf tubes and diluted with 990 μL of Pityrosporum broth. This represents a 10^2 dilution. Serial dilution was performed from the above 24 hours inocula and plated 100 μL of dilution onto modified Dixon plate. Plate dilution 10^2, 10^3, 10^4 and […]. All the plates were kept for incubation at 32° C. for 24-72 hrs. Plate count for all the plates were done.

A further experiment concerns Staphylococcus aureus. In words: Antibacterial efficacy, log reduction by plate count. To be noted: contact time 60 seconds, 40 mg sample in 100 ml water, pH 10, room temperature.
The next experiment relates to M. furfur ATCC 14521. In words: Disc diffusion technique (agar cup method), zone of inhibition. To be noted: test conc. 0.5 %, Modified Dixon agar, 72 hrs at 32 C, disc diameter 10 mm. For orientation: Agar diffusion results depend on both activity and mobility in agar.

Description for M. furfur ATCC 14521: The plates are swabbed with 100 μl of test inoculum containing approximately 10^6 cells/ml. The swabbed plates are allowed to dry for 5 mins so to absorb excess of remaining culture fluid. The discs impregnated with different test solution were placed on the inoculated agar surface. Each plate was labelled with different test solution and their respective concentration used. The agar plates are incubated for 72 hrs at 32° C. Zones of inhibition are measured using calibrated mm ruler.
Media used: Modified Dixon agar
Incubation conditions: 72 hrs at 32 C
Diameter of disc used: 10 mm (Himedia make)
Description for Staphylococcus aureus: 40 mg of the powdered sample was dispersed in 100 ml deionised sterile water. The pH was maintained at 10 using NaOH. 8 ml of the solution was taken, to it 1 ml cell (1 mL bacterial suspension of Staphylococcus aureus (stock 10^9 cells/MI) and 1 ml of distilled water was added. The incubation was done at room temperature for 30 and 60 seconds respectively. 1 ml of the above reaction mixtures was taken and added to 9 ml of Dey-Engley Neutralizing Broth. This was further incubated for 5 minutes. This represents 10^−1 dilution. Serial dilutions were performed for plate count.

On to Zinc isoniacinamide [B], for which the Log reduction in the experiment with M. furfur is given as 1.98; with Staphylococcus aureus, 0.9. Also, in the experiment on M. furfur ATCC 14521, the “zone of inhibition (mm)” value is listed as 0 mm.

`NC(=O)c1ccccn1.[Zn]` [D, Zinc picolinamide] returned a Log reduction in the experiment on M. furfur of 1.92.

Zinc niacinamide had a Log reduction in the experiment on M. furfur of 1.96.
